Measurements reported in patent US20150080337A1, “N-CYCLOALKYL-N-[(TRISUBSTITUTEDSILYLPHENYL)METHYLENE]-(THIO)CARBOXAMIDE DERIVATIVES” (BAYER CROPSCIENCE, priority 2012, published 2015).

Tests used:
[1] = log P by HPLC on reversed-phase column (C 18), EEC Directive 79/831 Annex V.A8; format: physicochemical; details: Table 1, compounds of formula (I); HPLC C 18, 40° C., 0.1% aqueous formic acid and acetonitrile, gradient 10% to 90% acetonitrile
Procedure: In table 1, the log P values were determined in accordance with EEC Directive 79/831 Annex V.A8 by HPLC (High Performance Liquid Chromatography) on a reversed-phase column (C 18), using the method described below:
Temperature: 40° C.; Mobile phases: 0.1% aqueous formic acid and acetonitrile; linear gradient from 10% acetonitrile to 90% acetonitrile.
Calibration was carried out using unbranched alkan-2-ones (comprising 3 to 16 carbon atoms) with known log P values (determination of the log P values by the retention times using linear interpolation between two successive alkanones). lambda-max-values were determined using UV-spectra from 200 nm to 400 nm and the peak values of the chromatographic signals.
In table 2, M+H (Apcl+) and log P are defined as for table 1.

[2] = test system: Botrytis cinerea; experiment: In vivo preventive test on Botrytis cinerea (grey mould); details: 500 ppm of active ingredient; gherkin plants sprayed 24 hours before contamination; grading 4 to 5 days after contamination vs control plants
Procedure: (§1) The active ingredients tested are prepared by homogenization in a mixture of acetone/tween/DMSO and then diluted with water to obtain the desired active material concentration.
Gherkin plants (“Vert petit de Paris” variety), sown in starter cups on a 50/50 peat soil pozzolana substrate and grown at 24° C., are treated at the Z11 cotyledon stage by spraying with the active ingredient prepared as described above. Plants, used as controls, are treated with the mixture of acetone/tween/DMSO/water not containing the active material.
After 24 hours, the plants are contaminated by spraying the cotyledons with an aqueous suspension of cryopreserved Botrytis cinerea spores (50 000 spores per mL). The spores are suspended in a nutrient solution composed of 10 g/L of PDB, 50 g/L of D-Fructose, 2 g/L of NH4NO3 and 1 g/L of KH2PO4. The contaminated gherkin plants are incubated at 17° C. and at 90% relative humidity.
Grading (% of efficacy) is carried out 4 to 5 days after the contamination, in comparison with the control plants.
Under these conditions, good (at least 70%) is observed at a dose of 500 ppm of active ingredient with the following compound from table E: […]

[3] = test system: Pyrenophora teres; experiment: In vivo test on Pyrenophora teres (barley net blotch); details: 500 ppm of active ingredient; barley plants sprayed 24 hours before contamination; grading 14 days after contamination vs control plants
Procedure: (§2) The active ingredients tested are prepared by homogenization in a mixture of acetone/tween/DMSO, and then diluted with water to obtain the desired active material concentration.
Barley plants (“Plaisant” variety), sown in starter cups on a 50/50 peat soil pozzolana substrate and grown at 22° C., are treated at the 1 leaf stage (10 cm height) by spraying with the active ingredient prepared as described above. Plants, used as controls, are treated with the mixture of acetone/tween/DMSO/water not containing the active material.
After 24 hours, the plants are contaminated by spraying the leaves with an aqueous suspension of Pyrenophora teres spores (12 000 spores per mL). The spores are collected from a 12-day-old culture. The contaminated barley plants are incubated for 48 hours at 20° C. and at 100% relative humidity, and then for 12 days at 20° C. at 70-80% relative humidity.
Grading (% of efficacy) is carried out 14 days after the contamination, in comparison with the control plants.
Under these conditions, good (at least 70%) to excellent (at least 90%) protection is observed at a dose of 500 ppm of active ingredient with the following compounds from table B: […]

[4] = test system: Sphaerotheca fuliginea; experiment: In vivo test on Sphaerotheca fuliginea (cucurbits powdery mildew); details: 500 ppm of active ingredient; gherkin plants sprayed 24 hours before contamination; grading 12 days after contamination vs control plants
Procedure: as §1
Gherkin plants (“Vert petit de Paris” variety), sown in starter cups on a 50/50 peat soil-pozzolana substrate and grown at 24° C., are treated at the Z11 cotyledon stage by spraying with the active ingredient prepared as described above. Plants, used as controls, are treated with the mixture of acetone/tween/DMSO/water not containing the active material.
After 24 hours, the plants are contaminated by spraying the cotyledons with an aqueous suspension of Sphaerotheca fuliginea spores (100 000 spores per mL). The spores are collected from infected plants. The contaminated gherkin plants are incubated at about 20° C. and at 70-80% relative humidity.
(§3) Grading (% of efficacy) is carried out 12 days after the contamination, in comparison with the control plants.
Under these conditions, good (at least 70%) to total protection is observed at a dose of 500 ppm of active ingredient with the following compounds from table A: […]

[5] = test system: Uromyces appendiculatus; experiment: In vivo preventive test on Uromyces appendiculatus (bean rust); details: 500 ppm of active ingredient; bean plants sprayed 24 hours before contamination; grading 11 days after contamination vs control plants
Procedure: as §2
Bean plants (“Saxa” variety), sown in starter cups on a 50/50 peat soil pozzolana substrate and grown at 24° C., are treated at the 2 leaf stage (9 cm height) by spraying with the active ingredient prepared as described above. Plants, used as controls, are treated with the mixture of acetone/tween/DMSO/water not containing the active material.
(§4) After 24 hours, the plants are contaminated by spraying the leaves with an aqueous suspension of Uromyces appendiculatus spores (150 000 spores per mL). The spores are collected from infected plants and are suspended in water containing 2.5 mL/L of Tween 80 at 10%. The contaminated bean plants are incubated for 24 hours at 20° C. and at 100% relative humidity, and then for 10 days at 20° C. and at 70-80% relative humidity.
Grading (% of efficacy) is carried out 11 days after the contamination, in comparison with the control plants.
Under these conditions, good (at least 70%) to total protection is observed at a dose of 500 ppm of active ingredient with the following compounds from table G: […]

[6] = test system: Septoria tritici; experiment: In vivo preventive test on Septoria tritici (wheat); details: 500 ppm of active ingredient; wheat plants sprayed 24 hours before contamination; grading 24 days after contamination vs control plants
Procedure: as §2
(§5) Wheat plants (“Scipion” variety), sown in starter cups on a 50/50 peat soil pozzolana substrate and grown at 22° C., are treated at the 1 leaf stage (10 cm height) by spraying with the active ingredient prepared as described above. Plants, used as controls, are treated with the mixture of acetone/tween/DMSO/water not containing the active material.
After 24 hours, the plants are contaminated by spraying the leaves with an aqueous suspension of cryopreserved Septoria tritici spores (500 000 spores per mL). The contaminated wheat plants are incubated for 72 hours at 18° C. and at 100% relative humidity, and then for 21 days at 90% relative humidity.
Grading (% of efficacy) is carried out 24 days after the contamination, in comparison with the control plants.
Under these conditions, good (at least 70%) to total protection is observed at a dose of 500 ppm of active ingredient with the following compounds from table F: […]

[7] = test system: Alternaria brassicae; experiment: In vivo preventive test on Alternaria brassicae (leaf spot on radish); details: 500 ppm of active ingredient; radish plants sprayed 24 hours before contamination; grading 6 days after contamination vs control plants
Procedure: as §2
Radish plants (“Pernod Clair” variety), sown in starter cups on a 50/50 peat soil pozzolana substrate and grown at 17° C., are treated at the cotyledon stage by spraying with the active ingredient prepared as described above. Plants, used as controls, are treated with the mixture of acetone/tween/DMSO/water not containing the active material.
After 24 hours, the plants are contaminated by spraying the cotyledons with an aqueous suspension of Alternaria brassicae spores (50 000 spores per mL). The spores are collected from a 15-day-old culture. The contaminated radish plants are incubated at 20° C. and at 100% relative humidity.
Grading (% of efficacy) is carried out 6 days after the contamination, in comparison with the control plants.
Under these conditions, good (at least 70%) to total protection is observed at a dose of 500 ppm of active ingredient with the following compounds from table D: […]

[8] = test system: Puccinia recondita; experiment: In vivo test on Puccinia recondita (brown rust); details: 500 ppm of active ingredient; wheat plants sprayed 24 hours before contamination; grading 12 days after contamination vs control plants
Procedure: as §2, §5
as §4, with “of Puccinia recondita” for “of Uromyces appendiculatus”, “spores (100” for “spores (150”, “from an” for “from”, “infected plant” for “infected plants”, “contaminated wheat” for “contaminated bean”
as §3
Under these conditions, good (at least 70%) to excellent (at least 90%) protection is observed at a dose of 500 ppm of active ingredient with the following compounds from table C: […]

Row | Structure (SMILES) | logP [1] | Efficacy [2] [%] | Efficacy [3] [%] | Efficacy [4] [%] | Efficacy [5] [%] | Efficacy [6] [%] | Efficacy [7] [%] | Efficacy [8] [%] | chromatographic logP [1]
1 | C[Si](C)(c1ccccc1CN(C(=O)c1ccsc1I)C1CC1)c1cccc2ccccc12 [I.29] | 5.84 | 75 | – | – | – | – | – | – | –
2 | Cn1cc(C(=O)N(Cc2ccccc2[Si](C)(C)c2ccc(Oc3ccccc3)cc2)C2CC2)c(C(F)F)n1 [I.20] | 5.31 | – | 79 | 83 | 89 | 75 | – | – | –
3 | Cn1nc(C(F)F)c(C(=O)N(Cc2ccccc2[Si](C)(C)c2cccc3ccccc23)C2CC2)c1F [I.25] | 5.19 | – | – | 100 | 86 | 100 | 80 | – | –
4 | Cn1nc(C(F)F)c(C(=O)N(Cc2ccccc2[Si](C)(C)c2ccc(Oc3ccccc3)cc2)C2CC2)c1F [I.19] | 5.68 | – | 97 | 100 | 96 | 100 | – | 93 | –
5 | Cn1nc(C(F)F)c(C(=S)N(Cc2ccccc2[Si](C)(C)c2ccc(Cl)cc2)C2CC2)c1F [I.8] | 3.09 | – | – | 100 | 97 | 97 | 88 | 88 | –
6 | Cc1nn(C)c(F)c1C(=O)N(Cc1ccccc1[Si](C)(C)c1ccccc1)C1CC1 [I.1, N-cyclopropyl-N-{2-[dimethyl(phenyl)silyl]benzyl}-5-fluoro-1,3-dimethyl-1H-pyrazole-4-carboxamide] | – | – | – | 100 | 93 | 96 | – | 92 | 4.24
